The values that follow come from PubChem BioAssay (NCI).

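Interpolation was linear, between the two tested concentrations surrounding the appropriate level; five concentrations were tested over 48 hours in 96-well plates. Abbreviation: GI50, concentration required for 50% inhibition of growth. The concentration for full growth arrest is given as TGI.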

Test systems include DU-145 prostate; HCT-116 colon; HCT-15 colon; HS 578T breast; MOLT-4 leukemia; OVCAR-3 ovarian; OVCAR-4 ovarian; HL-60(TB) leukemia.
What all share (test): DTP human tumour cell line panel, 48 h

As to `COC(=O)[C@]12CC[C@@H](C)[C@H](C)[C@@H]1C1=CC[C@@H]3[C@@]4(C)C(C=O)=C[C@@](C)(CO)[C@@H]4[C@H](O)C[C@@]3(C)[C@]1(C)CC2`, the GI50 with DU-145 prostate is 4.77 µM; in the assay on HCT-116 colon it was 2.76 µM; in the assay on HCT-15 colon it was 2.11 µM; in the assay with HS 578T breast, 4.82 µM; with MOLT-4 leukemia it was 2.79 µM; with OVCAR-3 ovarian it was 2.54 µM. The GI50 in the assay with OVCAR-4 ovarian is 4.17 µM. Besides, the concentration for total growth inhibition (TGI) turned out to be 16.5 µM with DU-145 prostate; 8.97 µM in the assay with HCT-116 colon; 6 µM with HCT-15 colon; 26.4 µM in the assay with HS 578T breast; 8.73 µM with MOLT-4 leukemia; 7.78 µM in the assay on OVCAR-3 ovarian. Besides, in the assay on OVCAR-4 ovarian, the TGI amounted to 16.8 µM.

With `COC(=O)C1C(C(=O)O)C2(c3ccccc3)C(=O)C1(c1ccccc1)C(c1ccccc1)=C2c1ccccc1` (stereo not drawn), the GI50 in the assay on DU-145 prostate is 16.9 µM; with HCT-116 colon, 19.6 µM; with HCT-15 colon, 32.5 µM; in the assay on HS 578T breast, 23.4 µM; in the assay on MOLT-4 leukemia it was 14.5 µM; with OVCAR-3 ovarian, 19.7 µM. Moreover, the GI50 in the assay on OVCAR-4 ovarian is 15.3 µM. Besides, the concentration for total growth inhibition (TGI) in the assay on DU-145 prostate is 34 µM; in the assay with HCT-116 colon, 35.2 µM; with HCT-15 colon, above 100 µM; in the assay on HS 578T breast it was 58 µM; in the assay on MOLT-4 leukemia, 36 µM; with OVCAR-3 ovarian, 50.4 µM. The molecule further returned a concentration for total growth inhibition (TGI) in the assay on OVCAR-4 ovarian of 48.3 µM.

For `O=S(=O)(NC1=NCCN1C(=S)SN1CCn2c1nsc2=S)c1ccc(Oc2ccccc2)cc1`, the GI50 with DU-145 prostate is 31.7 µM; in the assay on HCT-116 colon it was 51.2 µM; in the assay with HCT-15 colon it was 72.1 µM; with HL-60(TB) leukemia, 2.78 µM; in the assay with HS 578T breast it was 27.5 µM; with OVCAR-3 ovarian it was above 100 µM. Also, in the assay with OVCAR-4 ovarian, the GI50 is 79.1 µM. In addition, the TGI in the assay with DU-145 prostate is above 100 µM; in the assay on HCT-116 colon, above 100 µM; with HCT-15 colon it was above 100 µM; in the assay with HL-60(TB) leukemia it was 11.3 µM; with HS 578T breast, above 100 µM; in the assay on OVCAR-3 ovarian, above 100 µM. In addition, in the assay on OVCAR-4 ovarian, the concentration for total growth inhibition (TGI) is above 100 µM.

With `O=C(/C=C/c1ccccc1)c1cccc2ccccc12`, the GI50 in the assay on DU-145 prostate is 3.63 µM; with HCT-116 colon, 1.96 µM; with HCT-15 colon, 3.2 µM; with HL-60(TB) leukemia, 1.49 µM; in the assay with HS 578T breast, 5.43 µM; in the assay with MOLT-4 leukemia it was 1.43 µM. The GI50 with OVCAR-3 ovarian is 2.01 µM. In addition, the TGI with DU-145 prostate was 13 µM; in the assay on HCT-116 colon, 4.1 µM; in the assay on HCT-15 colon, 13.4 µM; in the assay on HL-60(TB) leukemia, 5.21 µM; in the assay on HS 578T breast, above 100 µM; in the assay with MOLT-4 leukemia, 5.68 µM. The molecule further came in with a concentration for total growth inhibition (TGI) in the assay on OVCAR-3 ovarian of 4.71 µM.

For `C=C1c2nc3ccccc3n2C=C(c2cccc(Cl)c2)N1Cc1ccc(OC)cc1`, the GI50 in the assay on DU-145 prostate is 1.8 µM; with HCT-116 colon, 0.496 µM; with HCT-15 colon it was 0.535 µM; with HL-60(TB) leukemia, 0.193 µM; in the assay with HS 578T breast it was 0.565 µM; with MOLT-4 leukemia it was 2.57 µM. The GI50 in the assay on OVCAR-4 ovarian is 1.83 µM. In addition, the concentration for total growth inhibition (TGI) in the assay on DU-145 prostate is above 53.5 µM; in the assay on HCT-116 colon it was 11.7 µM; in the assay with HCT-15 colon it was above 100 µM; with HL-60(TB) leukemia, 0.639 µM; in the assay on HS 578T breast, above 100 µM; in the assay on MOLT-4 leukemia it was 11.2 µM. Besides, the TGI with OVCAR-4 ovarian is above 100 µM.

`Nc1ccccc1C#C/C=C\C#Cc1ccccc1C#CCO`: the GI50 was 15.8 µM in the assay on DU-145 prostate; 8.3 µM in the assay with HCT-116 colon; 4.92 µM in the assay with HCT-15 colon; 8.49 µM with HL-60(TB) leukemia; 8.89 µM in the assay on HS 578T breast; 6.63 µM with OVCAR-3 ovarian. The GI50 in the assay on OVCAR-4 ovarian is 14 µM. Moreover, the total growth inhibition concentration (TGI) with DU-145 prostate was above 50 µM; in the assay on HCT-116 colon, 24.7 µM; in the assay on HCT-15 colon, 18.3 µM; with HL-60(TB) leukemia, above 50 µM; in the assay with HS 578T breast it was 27.8 µM; in the assay on OVCAR-3 ovarian, 18.5 µM. Also, the TGI in the assay with OVCAR-4 ovarian is 41.4 µM.

With `CCN(CC)CCNC(=O)c1cccc2c1-c1ccccc1C2=O`, the GI50 in the assay with DU-145 prostate is above 100 µM; in the assay with HCT-116 colon it was 55.9 µM; in the assay on HCT-15 colon, above 100 µM; in the assay on HS 578T breast, above 100 µM; in the assay on OVCAR-3 ovarian it was above 100 µM; with OVCAR-4 ovarian, above 100 µM. Further, the TGI with DU-145 prostate, with HCT-116 colon, in the assay on HCT-15 colon, in the assay on HS 578T breast, in the assay with OVCAR-3 ovarian and in the assay with OVCAR-4 ovarian was above 100 µM each time.

Take `Oc1ccc2c(=S)cc(-c3ccc(Br)cc3)oc2c1O`: the GI50 with DU-145 prostate is 2.67 µM; in the assay on HCT-116 colon it was 2.22 µM; with HCT-15 colon it was 0.853 µM; in the assay on HL-60(TB) leukemia it was 1.66 µM; in the assay with HS 578T breast it was 6.69 µM; with MOLT-4 leukemia, 2.16 µM. For the same molecule, the GI50 with OVCAR-4 ovarian was 2.03 µM. Also, the concentration for total growth inhibition (TGI) was above 100 µM in the assay with DU-145 prostate; 9.73 µM in the assay on HCT-116 colon; 12.1 µM in the assay with HCT-15 colon; 6.24 µM in the assay with HL-60(TB) leukemia; above 100 µM with HS 578T breast; 6.77 µM in the assay on MOLT-4 leukemia. The concentration for total growth inhibition (TGI) in the assay with OVCAR-4 ovarian is above 100 µM.

On to `COc1cc2c(cc1OC)C(C(CCCCCC(CCC(C)C)C1NCCc3cc(OC)c(OC)cc31)CCC(C)C)NCC2` (stereo not drawn), for which the GI50 with DU-145 prostate is 1.19 µM; in the assay on HCT-116 colon, 0.199 µM; with HCT-15 colon, 0.274 µM; in the assay with HL-60(TB) leukemia it was 0.878 µM; with HS 578T breast, 1.42 µM; in the assay on OVCAR-3 ovarian, 1.61 µM. Moreover, the GI50 in the assay on OVCAR-4 ovarian was 1.54 µM. Besides, the TGI in the assay with DU-145 prostate is 2.55 µM; in the assay on HCT-116 colon, 0.388 µM; in the assay on HCT-15 colon, 0.851 µM; in the assay on HL-60(TB) leukemia it was 2.55 µM; in the assay on HS 578T breast, 3.43 µM; in the assay with OVCAR-3 ovarian, 3.12 µM. In addition, in the assay on OVCAR-4 ovarian, the TGI is 2.92 µM.

Turning to `O=C(Oc1ccccc1)N(c1ccccc1)c1ccccc1`, the GI50 with DU-145 prostate is 42.9 µM; in the assay with HCT-116 colon, 18.6 µM; with HCT-15 colon, 31.1 µM; in the assay with HL-60(TB) leukemia, 28.2 µM; with MOLT-4 leukemia, 28.3 µM; in the assay on OVCAR-3 ovarian, 23.7 µM. Further, the GI50 with OVCAR-4 ovarian was 25.1 µM. Moreover, the concentration for total growth inhibition (TGI) is above 100 µM with DU-145 prostate; 76.8 µM in the assay with HCT-116 colon; above 100 µM with HCT-15 colon; 71.4 µM in the assay with HL-60(TB) leukemia; above 100 µM in the assay with MOLT-4 leukemia; above 100 µM with OVCAR-3 ovarian. The same molecule showed a concentration for total growth inhibition (TGI) with OVCAR-4 ovarian above 100 µM.

The term GI50 denotes the concentration that inhibits growth by half. Usually TGI stands for the concentration giving total growth inhibition.
